The source made the active and inactive calls.
Experiments:
Protein Rev = Protein Rev (Human immunodeficiency virus type 1 group M subtype B (isolate HXB2)(HIV-1), UniProt P04618); experiment: inhibitors of Rev binding to RRE RNA, dose response, biochemical, fluorescence polarization, HIV-1 (AID 434976); set-up: species or system Human immunodeficiency virus 1
[1] = target: Female germline-specific tumor suppressor gld-1 (Caenorhabditis elegans, UniProt Q17339); experiment: inhibitors of GLD-1 binding to TGE RNA, dose response, biochemical, fluorescence polarization, C. elegans (AID 2802);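 also: fluorescence polarization of labeled TGE RNA bound by purified gld-1 protein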
Sequence of Female germline-specific tumor suppressor gld-1 (Q17339 whole entry): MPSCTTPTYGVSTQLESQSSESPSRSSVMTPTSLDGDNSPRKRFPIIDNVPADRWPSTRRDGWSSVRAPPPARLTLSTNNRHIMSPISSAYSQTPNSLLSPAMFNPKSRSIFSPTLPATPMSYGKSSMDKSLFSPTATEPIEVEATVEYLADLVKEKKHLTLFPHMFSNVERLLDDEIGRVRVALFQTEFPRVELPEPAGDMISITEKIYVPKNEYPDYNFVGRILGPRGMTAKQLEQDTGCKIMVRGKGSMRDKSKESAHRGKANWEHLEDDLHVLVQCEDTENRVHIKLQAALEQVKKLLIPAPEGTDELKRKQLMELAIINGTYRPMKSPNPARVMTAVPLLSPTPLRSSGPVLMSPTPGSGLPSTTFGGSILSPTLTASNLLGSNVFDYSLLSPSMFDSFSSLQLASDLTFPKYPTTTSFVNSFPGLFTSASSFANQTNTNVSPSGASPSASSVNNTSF

[2] = target: Peroxisome proliferator-activated receptor gamma/Nuclear receptor coactivator 2 (Homo sapiens, UniProt P37231); type: functional;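 also: agonist potency for raising coactivator recruitment to the receptor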
Sequence of Peroxisome proliferator-activated receptor gamma/Nuclear receptor coactivator 2 (P37231 whole entry): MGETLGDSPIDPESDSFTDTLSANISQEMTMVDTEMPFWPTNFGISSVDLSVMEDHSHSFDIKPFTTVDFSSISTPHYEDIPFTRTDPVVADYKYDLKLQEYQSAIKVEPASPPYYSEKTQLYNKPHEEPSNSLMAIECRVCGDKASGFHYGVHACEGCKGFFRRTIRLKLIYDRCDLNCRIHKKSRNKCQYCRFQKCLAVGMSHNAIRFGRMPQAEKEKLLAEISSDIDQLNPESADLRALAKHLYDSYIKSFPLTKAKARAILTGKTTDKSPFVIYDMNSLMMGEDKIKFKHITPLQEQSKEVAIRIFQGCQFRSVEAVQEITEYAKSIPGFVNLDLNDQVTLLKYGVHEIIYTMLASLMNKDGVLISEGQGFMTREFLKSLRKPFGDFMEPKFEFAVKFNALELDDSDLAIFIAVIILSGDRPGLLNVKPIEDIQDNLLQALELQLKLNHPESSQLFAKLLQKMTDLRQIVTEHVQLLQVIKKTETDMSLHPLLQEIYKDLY
Sequence of Peroxisome proliferator-activated receptor gamma/Nuclear receptor coactivator 2 (Q15596 whole entry, further chain): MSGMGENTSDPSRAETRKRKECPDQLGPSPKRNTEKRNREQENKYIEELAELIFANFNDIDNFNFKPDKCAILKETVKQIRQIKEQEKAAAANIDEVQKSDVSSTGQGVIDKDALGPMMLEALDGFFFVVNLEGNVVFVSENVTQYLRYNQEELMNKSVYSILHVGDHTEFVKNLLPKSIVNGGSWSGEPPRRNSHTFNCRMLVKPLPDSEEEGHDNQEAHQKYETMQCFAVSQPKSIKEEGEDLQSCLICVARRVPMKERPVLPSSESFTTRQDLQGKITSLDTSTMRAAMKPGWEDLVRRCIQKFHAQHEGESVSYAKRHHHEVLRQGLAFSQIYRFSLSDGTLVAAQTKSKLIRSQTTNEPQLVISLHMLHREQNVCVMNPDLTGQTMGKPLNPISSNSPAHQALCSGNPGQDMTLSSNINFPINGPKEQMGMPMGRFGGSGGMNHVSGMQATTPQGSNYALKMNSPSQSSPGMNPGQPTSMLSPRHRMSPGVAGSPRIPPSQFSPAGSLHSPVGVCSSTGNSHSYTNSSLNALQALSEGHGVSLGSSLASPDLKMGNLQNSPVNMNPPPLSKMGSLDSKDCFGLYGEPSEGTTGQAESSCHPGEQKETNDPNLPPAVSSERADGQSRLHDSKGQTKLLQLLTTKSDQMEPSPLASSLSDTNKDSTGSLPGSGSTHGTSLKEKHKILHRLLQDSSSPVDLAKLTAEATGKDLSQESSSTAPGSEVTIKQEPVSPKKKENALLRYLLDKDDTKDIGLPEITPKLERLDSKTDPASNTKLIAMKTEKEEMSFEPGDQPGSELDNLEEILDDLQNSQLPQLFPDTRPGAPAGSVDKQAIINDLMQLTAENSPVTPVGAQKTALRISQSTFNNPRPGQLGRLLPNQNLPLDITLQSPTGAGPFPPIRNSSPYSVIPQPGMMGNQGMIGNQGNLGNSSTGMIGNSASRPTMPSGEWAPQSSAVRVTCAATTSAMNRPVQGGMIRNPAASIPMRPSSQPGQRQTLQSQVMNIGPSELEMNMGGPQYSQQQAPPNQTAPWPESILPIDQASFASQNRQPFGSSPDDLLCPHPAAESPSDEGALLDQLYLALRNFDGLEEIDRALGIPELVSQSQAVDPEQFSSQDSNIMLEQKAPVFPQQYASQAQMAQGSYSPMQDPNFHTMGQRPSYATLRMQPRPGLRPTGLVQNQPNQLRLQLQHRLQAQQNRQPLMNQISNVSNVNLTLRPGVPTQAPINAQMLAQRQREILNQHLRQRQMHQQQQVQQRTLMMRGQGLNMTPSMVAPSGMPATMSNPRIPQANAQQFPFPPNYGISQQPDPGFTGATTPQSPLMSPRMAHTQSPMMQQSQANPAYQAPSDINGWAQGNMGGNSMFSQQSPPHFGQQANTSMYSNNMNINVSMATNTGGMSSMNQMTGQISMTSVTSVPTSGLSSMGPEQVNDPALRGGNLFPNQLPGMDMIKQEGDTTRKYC

[3] = target: T1, Heat shock factor protein 1 (Mus musculus, UniProt P38532); experiment: HSF1 potentiators in luciferase reporter cells, confirmation, cell-based, NIH3T3, luminescence, dose retest (AID 435004); type: functional;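 also: stress induced by proteasome inhibitor MG132 added 30 min after compound; luciferase reporter driven by HSF1 response element in NIH3T3 cells; actives raise luminescence as potentiators of the MG132 stress response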
T1 sequence (P38532 whole entry): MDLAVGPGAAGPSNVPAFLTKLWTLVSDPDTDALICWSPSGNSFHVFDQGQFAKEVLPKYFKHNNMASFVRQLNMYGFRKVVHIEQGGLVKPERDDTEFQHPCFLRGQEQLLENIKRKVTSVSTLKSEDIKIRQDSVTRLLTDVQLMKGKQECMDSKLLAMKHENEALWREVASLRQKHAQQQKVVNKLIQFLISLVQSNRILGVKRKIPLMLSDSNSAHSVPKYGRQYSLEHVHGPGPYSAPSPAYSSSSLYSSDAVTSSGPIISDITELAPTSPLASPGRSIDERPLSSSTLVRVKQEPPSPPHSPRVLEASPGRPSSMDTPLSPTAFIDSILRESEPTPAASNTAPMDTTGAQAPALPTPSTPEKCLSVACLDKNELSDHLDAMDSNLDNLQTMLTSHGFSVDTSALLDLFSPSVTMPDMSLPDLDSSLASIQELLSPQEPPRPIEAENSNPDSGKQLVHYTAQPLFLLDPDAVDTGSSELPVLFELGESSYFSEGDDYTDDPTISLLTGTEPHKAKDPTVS

[4] = target: Peroxisome proliferator-activated receptor gamma/Nuclear receptor coactivator 3 (Homo sapiens, UniProt P37231); type: functional;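 also: agonist potency for raising coactivator recruitment to the receptor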
[5] = target: Peroxisome proliferator-activated receptor gamma/Nuclear receptor coactivator 1 (Homo sapiens, UniProt P37231); type: functional;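 also: agonist potency as compounds enhance coactivator SRC-1 recruitment to PPARgamma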
Cytochrome P450 2C19 [6] = target: T2, Cytochrome P450 2C19 (Homo sapiens, UniProt P33261); experiment: qHTS Assay for Inhibitors and Substrates of Cytochrome P450 2C19. [Related pubchem assays: 410 ]; type: ADME; conditions: read-out: Potency
T2 sequence (P33261 whole entry): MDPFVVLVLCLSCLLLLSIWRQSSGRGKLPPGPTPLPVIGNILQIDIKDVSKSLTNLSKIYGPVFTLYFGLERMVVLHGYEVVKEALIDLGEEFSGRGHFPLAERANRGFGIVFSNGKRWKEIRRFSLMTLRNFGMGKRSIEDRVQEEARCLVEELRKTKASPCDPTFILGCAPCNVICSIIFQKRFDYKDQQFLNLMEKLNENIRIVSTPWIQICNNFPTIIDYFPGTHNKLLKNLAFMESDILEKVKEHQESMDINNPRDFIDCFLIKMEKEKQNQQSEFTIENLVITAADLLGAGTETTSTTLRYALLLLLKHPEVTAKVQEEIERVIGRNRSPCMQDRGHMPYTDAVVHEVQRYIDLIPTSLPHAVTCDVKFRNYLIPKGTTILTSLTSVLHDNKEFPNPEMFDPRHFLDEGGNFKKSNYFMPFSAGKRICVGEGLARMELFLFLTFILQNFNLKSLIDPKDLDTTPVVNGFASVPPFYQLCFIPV

Cytochrome P450 2C9 [7] = target: T3, Cytochrome P450 2C9 (Homo sapiens, UniProt P11712); conditions: Potency
T3 sequence (P11712 whole entry): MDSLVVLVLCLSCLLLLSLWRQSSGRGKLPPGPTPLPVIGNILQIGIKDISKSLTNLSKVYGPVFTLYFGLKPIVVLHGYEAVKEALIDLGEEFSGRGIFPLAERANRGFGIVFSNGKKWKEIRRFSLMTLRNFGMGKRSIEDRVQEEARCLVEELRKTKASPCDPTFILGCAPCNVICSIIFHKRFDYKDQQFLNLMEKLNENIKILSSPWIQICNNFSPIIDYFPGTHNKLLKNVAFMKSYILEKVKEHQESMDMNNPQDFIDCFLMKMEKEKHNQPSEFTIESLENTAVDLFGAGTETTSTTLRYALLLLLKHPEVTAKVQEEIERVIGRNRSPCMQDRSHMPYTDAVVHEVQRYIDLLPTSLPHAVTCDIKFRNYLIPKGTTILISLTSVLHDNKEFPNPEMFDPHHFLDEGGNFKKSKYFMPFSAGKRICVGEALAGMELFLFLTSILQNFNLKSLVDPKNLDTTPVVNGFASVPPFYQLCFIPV

[8] = NIH-3T3 fibroblast cytotoxicity, dose response, cytotoxicity control, cell-based, fluorescence, Alamar Blue, secondary assay (AID 2327); type: functional;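 also: NIH-3T3 mouse fibroblasts cultured with fluconazole at 8 µg/mL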
[9] = C. albicans growth with fluconazole, confirmation, fluorescence, retest (AID 2467); type: functional, cell-based
[10] = inhibitors of Bluetongue virus cytopathic effect, confirmation, arbovirus, BSR cells (AID 1250); type: functional;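 also: protection from viral cytopathic effect measured as cell viability by ATP luminescence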
[11] = target: T4, Alkaline phosphatase, tissue-nonspecific isozyme (Homo sapiens, UniProt P05186)
T4 sequence (P05186 whole entry): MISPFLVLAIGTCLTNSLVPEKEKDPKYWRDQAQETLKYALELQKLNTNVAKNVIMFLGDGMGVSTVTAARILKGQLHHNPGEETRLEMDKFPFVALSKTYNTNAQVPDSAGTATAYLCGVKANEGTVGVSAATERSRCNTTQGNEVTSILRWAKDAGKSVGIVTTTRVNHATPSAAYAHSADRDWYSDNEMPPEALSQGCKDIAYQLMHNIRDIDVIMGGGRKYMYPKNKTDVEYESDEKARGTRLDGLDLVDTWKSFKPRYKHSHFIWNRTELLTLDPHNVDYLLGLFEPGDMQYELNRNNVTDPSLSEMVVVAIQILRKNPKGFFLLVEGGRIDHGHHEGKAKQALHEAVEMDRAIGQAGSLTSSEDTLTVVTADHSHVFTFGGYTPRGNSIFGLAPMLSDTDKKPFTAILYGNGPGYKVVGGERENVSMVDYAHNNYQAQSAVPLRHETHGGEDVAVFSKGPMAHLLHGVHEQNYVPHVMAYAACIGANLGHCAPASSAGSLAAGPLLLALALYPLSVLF

[12] = target: T5, Short transient receptor potential channel 4 (Mus musculus, UniProt Q9QUQ5); experiment: mouse TRPC4 channel activators, dose response, cell-based, HEK293 TRPC4/mu-opioid, Fluo-4 calcium (AID 434937); type: functional
T5 sequence (Q9QUQ5 whole entry): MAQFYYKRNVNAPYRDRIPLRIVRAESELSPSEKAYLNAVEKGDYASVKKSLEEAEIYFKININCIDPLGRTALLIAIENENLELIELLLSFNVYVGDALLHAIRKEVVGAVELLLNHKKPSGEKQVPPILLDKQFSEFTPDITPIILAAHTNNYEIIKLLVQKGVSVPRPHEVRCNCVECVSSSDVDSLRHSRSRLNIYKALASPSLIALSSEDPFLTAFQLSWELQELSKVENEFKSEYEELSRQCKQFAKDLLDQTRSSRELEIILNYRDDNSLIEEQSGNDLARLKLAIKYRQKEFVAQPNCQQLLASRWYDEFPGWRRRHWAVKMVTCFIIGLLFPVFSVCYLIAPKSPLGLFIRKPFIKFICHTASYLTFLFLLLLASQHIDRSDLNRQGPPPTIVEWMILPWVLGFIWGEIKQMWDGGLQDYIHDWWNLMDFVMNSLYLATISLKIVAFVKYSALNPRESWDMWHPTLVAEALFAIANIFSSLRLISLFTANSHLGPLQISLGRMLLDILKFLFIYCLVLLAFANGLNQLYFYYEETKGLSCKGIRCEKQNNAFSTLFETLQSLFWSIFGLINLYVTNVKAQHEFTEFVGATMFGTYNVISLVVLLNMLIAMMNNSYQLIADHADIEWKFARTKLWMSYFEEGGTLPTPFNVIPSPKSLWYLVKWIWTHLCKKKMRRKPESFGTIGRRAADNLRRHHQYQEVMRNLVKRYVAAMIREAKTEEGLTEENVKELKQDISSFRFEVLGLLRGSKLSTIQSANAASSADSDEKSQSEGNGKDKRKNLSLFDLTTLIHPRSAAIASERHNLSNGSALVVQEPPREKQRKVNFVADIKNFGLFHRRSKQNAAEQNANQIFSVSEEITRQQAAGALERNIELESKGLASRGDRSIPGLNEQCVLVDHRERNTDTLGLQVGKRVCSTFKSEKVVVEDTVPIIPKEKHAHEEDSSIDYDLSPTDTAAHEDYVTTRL

HeLa = experiment: HeLa cell cytotoxicity, dose response, cytotoxicity control, 24 h, cherry-picked samples (AID 504726); type: functional, cell-based; conditions: Homo sapiens;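 also: potency for cytotoxicity as loss of luminescence signal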
Salmon testes DNA = experiment: DNA intercalators displacing acridine orange, dose response, artefact control for KSHV LANA DNA-binding inhibitor project, biochemical, fluorescence polarization, cherry-picked samples, set 2 (AID 504727); set-up: species or system Salmonidae
Bcl-2-like protein 10 = target: T6, Bcl-2-like protein 10 (Homo sapiens, UniProt Q9HD36); experiment: displacers of TR3 peptide from Bcl-B, primary screen, selectivity assay for Bfl-1 inhibitor project, biochemical, fluorescence polarization, FITC-TR3 peptide (AID 748);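 also: fluorescence polarization from a fluorescein-labelled TR3 peptide binding purified Bcl-B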
T6 sequence (Q9HD36 whole entry): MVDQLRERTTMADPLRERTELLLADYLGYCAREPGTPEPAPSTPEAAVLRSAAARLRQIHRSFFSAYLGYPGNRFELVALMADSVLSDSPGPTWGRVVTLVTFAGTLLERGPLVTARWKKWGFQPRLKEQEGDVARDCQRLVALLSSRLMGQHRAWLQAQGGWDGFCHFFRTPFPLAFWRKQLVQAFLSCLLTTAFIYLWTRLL

Cytochrome P450 2D6 [13] = target: T7, Cytochrome P450 2D6 (Homo sapiens, UniProt P10635); experiment: qHTS Assay for Inhibitors and Substrates of Cytochrome P450 2D6. [Related pubchem assays: 410 ]; type: ADME; conditions: read-out: Potency
T7 sequence (P10635 whole entry): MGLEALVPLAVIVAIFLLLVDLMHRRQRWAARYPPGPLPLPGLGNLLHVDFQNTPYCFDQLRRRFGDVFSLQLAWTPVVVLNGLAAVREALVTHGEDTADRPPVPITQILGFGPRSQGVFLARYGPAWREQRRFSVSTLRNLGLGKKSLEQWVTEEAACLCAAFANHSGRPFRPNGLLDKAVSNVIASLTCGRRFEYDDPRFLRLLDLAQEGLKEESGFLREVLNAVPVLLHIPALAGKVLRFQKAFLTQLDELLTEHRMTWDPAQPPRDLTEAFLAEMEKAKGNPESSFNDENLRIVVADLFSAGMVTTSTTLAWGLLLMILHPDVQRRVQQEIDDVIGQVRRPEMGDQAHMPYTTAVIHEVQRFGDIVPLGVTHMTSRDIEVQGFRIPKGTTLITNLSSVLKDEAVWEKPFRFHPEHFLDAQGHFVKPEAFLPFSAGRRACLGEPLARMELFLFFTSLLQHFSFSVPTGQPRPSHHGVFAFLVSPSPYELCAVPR

Vero [14] = experiment: cytotoxicity of synthesized analogs in Vero 76, SAR follow-up, cytotoxicity control for West Nile virus antiviral project, Vero 76 cells (AID 2414); type: functional; conditions: Chlorocebus sabaeus
Vero [15] = experiment: cytotoxicity of synthesized analogs in Vero cells, SAR follow-up, cytotoxicity control for West Nile virus antiviral project, cell-based, set II (AID 2402); type: functional; conditions: Chlorocebus sabaeus
Vero [16] = experiment: Vero E6 cell cytotoxicity, SAR follow-up, cytotoxicity control for West Nile virus antiviral project, synthesized analogs (AID 2244); type: functional; conditions: Chlorocebus sabaeus
Cytochrome P450 2D6 [17] = target: T7, Cytochrome P450 2D6
Vero [18] = experiment: Vero cell cytotoxicity, cytotoxicity control for flavivirus capping enzyme inhibitors (AID 588742); type: functional; conditions: Chlorocebus sabaeus
Estrogen receptor = target: T8, Estrogen receptor (Homo sapiens, UniProt P03372); experiment: potentiators of ERα–SRC-1 coactivator binding, dose response, biochemical, TR-FRET, ERα LBD (AID 737)
T8 sequence (P03372 whole entry): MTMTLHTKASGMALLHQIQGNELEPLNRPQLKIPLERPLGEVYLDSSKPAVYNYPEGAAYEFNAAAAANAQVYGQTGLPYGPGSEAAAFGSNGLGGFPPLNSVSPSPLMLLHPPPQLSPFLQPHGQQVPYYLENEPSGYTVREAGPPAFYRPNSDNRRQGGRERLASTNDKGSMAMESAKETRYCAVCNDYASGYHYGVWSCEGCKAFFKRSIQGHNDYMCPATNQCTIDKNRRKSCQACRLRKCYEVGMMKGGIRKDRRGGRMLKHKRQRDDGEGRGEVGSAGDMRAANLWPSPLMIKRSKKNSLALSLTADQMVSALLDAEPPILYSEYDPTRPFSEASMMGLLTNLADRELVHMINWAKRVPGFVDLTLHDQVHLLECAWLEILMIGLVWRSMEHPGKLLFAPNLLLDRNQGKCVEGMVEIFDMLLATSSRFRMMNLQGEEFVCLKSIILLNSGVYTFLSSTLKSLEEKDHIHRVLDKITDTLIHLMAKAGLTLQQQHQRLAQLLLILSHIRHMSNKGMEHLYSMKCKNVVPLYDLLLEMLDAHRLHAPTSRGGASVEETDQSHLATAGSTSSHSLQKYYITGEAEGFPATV

[19] = cytotoxicity in HPDE-C7 cells, cell-based, fluorescence, HTS (AID 430); type: functional; conditions: Homo sapiens
[20] = cytotoxicity in KRAS-transformed pancreatic duct cells, primary screen, cell-based, fluorescence, HTS (AID 431); type: functional; conditions: Homo sapiens;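 also: cell line used: HPDE-C7K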
Cytochrome P450 2C19 [21] = target: T2, Cytochrome P450 2C19; experiment: Cytochrome panel assay with activity outcomes. Panel member name: p450-cyp2c19 Compounds with AC50 equal or less than 10 uM are considered active; type: functional; conditions: read-out: AC50
Cytochrome P450 2C9 [22] = target: T3, Cytochrome P450 2C9

Sequence of Protein Rev (P04618 whole entry): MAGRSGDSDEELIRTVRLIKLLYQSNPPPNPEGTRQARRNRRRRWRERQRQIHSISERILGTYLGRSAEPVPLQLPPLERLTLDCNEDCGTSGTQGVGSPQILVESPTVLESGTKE

## CC(C)CCN(C(=O)CCCSc1nc2ccccc2[nH]1)c1c(N)n(Cc2ccccc2)c(=O)[nH]c1=O
Protein Rev
  IC50: > 8.38 µM (active)
[1]
  IC50: 3.12 µM (active)

## O=C(COC(=O)c1ccccc1C(=O)c1ccccc1)NCCc1ccccc1
[2]
  EC50: > 79.4 µM (not active)
[3]
  EC50: > 260 µM (inactive)
[4]
  EC50: > 79.4 µM (not active)
[5]
  EC50: > 79.4 µM (not active)

## CC(C)[C@@H](CC(=O)N[C@@H]1CCCC[C@H]1C(=O)N[C@H](CC(=O)N[C@@H](CCC(=O)O)CC(=O)O)Cc1ccccc1)NC(=O)C[C@H](CO)NC(=O)[C@@H]1CCCC[C@H]1N
Cytochrome P450 2C19 [6]
  AC50: 39.8 µM (inconclusive)
Cytochrome P450 2C9 [7]
  AC50: 39.8 µM (inconclusive)

## O=C(CCCn1c(=O)[nH]c2ccc(Br)cc2c1=O)NCc1ccc(Cl)cc1
[2]
  EC50: > 79.4 µM (not active)
[4]
  EC50: > 79.4 µM (not active)
[5]
  EC50: > 79.4 µM (not active)

## Cc1ccc2nc(-c3ccccc3Cl)cc(C(=O)Nc3cc(C)on3)c2c1
[8]
  EC50: > 160 µM (inactive)
[9]
  EC50: 3.33 µM (active)
[10]
  IC50: 45.5 µM (active)

## COc1ccc(-n2cc(CNCCc3nc(C)c[nH]3)c(-c3ccccc3Cl)n2)cc1
[11]
  EC50: 66.1 µM (not active)
[12]
  EC50: 5.96 µM (active)

## Cc1nnc2sc(-c3csc4c3CCCC4)nn12
HeLa
  AC50: 26.3 µM (active)
Salmon testes DNA
  AC50: 73.6 µM (active)

## O=C1NC(=O)[C@]2(Cc3ccccc3N3CCN(c4ccccc4)CC32)C(=O)N1c1ccccc1 (some centres undefined)
Bcl-2-like protein 10
  IC50: 54 µM (inactive)

## O=C1c2ccccc2C(O)(O)[C@@]1(O)[C@]1(O)C(=O)c2ccccc2C1(O)O
Cytochrome P450 2D6 [13]
  AC50: 7.94 µM (inconclusive)

## O=C(CSc1nc2ccccc2c(=O)n1-c1ccc(F)cc1)Nc1cccc2ccccc12
Vero [14]
  CC50: > 66.6 µM (active)
Vero [15]
  CC50: > 100 µM (active)
Vero [16]
  CC50: > 40 µM (active)

## CC(CCc1ccccc1)NC(=O)c1cc2sccc2n1C (centres undefined)
[10]
  IC50: > 100 µM (active)

## CC(=O)c1c(CC(=O)O)[nH]n(-c2nc3ccccc3s2)c1=O
Bcl-2-like protein 10
  IC50: 71.2 µM (inactive)

## COc1ccc(C[C@H]2c3cc(OC)c(OC)cc3CCN2C)cc1OC
Cytochrome P450 2D6 [17]
  AC50: 6.31 µM (inconclusive)
Cytochrome P450 2D6 [13]
  AC50: 12.6 µM (inconclusive)

## CCC(=O)Oc1ccc(/C(CC)=C(\CC)c2ccc(OC(=O)CC)cc2)cc1 [DIETHYLSTILBESTROL DIPROPIONATE]
Vero [18]
  CC50: > 40 µM (active)
Estrogen receptor
  EC50: 18.1 µM (active)
[19]
  EC50: 4.6 µM (active)
[20]
  EC50: 3.87 µM (active)

## CC(C)C(=O)Nc1ccc([N+](=O)[O-])c(C(F)(F)F)c1 [FLUTAMIDE]
Cytochrome P450 2C19 [21]
  AC50: 10 µM (inconclusive)
Cytochrome P450 2C9 [22]
  AC50: 12.6 µM (inconclusive)
Cytochrome P450 2C9 [7]
  AC50: 39.8 µM (inconclusive)

From ChEMBL document CHEMBL1201862, “PubChem BioAssay data set” (2004)
